Where two headings read alike, the source gives them in different places. Blank lines part the entries; values can stand above or below the compound they belong to.
Legend:
Format in all cases: cell-based
[1] = target: T1, CDK4 (Homo sapiens, UniProt P11802); assay: palbociclib-based degrader
Target sequence in this assay (P40337 whole entry): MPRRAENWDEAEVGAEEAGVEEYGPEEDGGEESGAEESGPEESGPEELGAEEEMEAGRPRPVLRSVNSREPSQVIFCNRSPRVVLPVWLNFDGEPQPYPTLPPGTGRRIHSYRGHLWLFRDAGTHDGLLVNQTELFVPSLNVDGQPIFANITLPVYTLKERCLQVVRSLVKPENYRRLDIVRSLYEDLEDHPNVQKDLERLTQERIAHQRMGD
Target sequence in this assay (P11802 2-303): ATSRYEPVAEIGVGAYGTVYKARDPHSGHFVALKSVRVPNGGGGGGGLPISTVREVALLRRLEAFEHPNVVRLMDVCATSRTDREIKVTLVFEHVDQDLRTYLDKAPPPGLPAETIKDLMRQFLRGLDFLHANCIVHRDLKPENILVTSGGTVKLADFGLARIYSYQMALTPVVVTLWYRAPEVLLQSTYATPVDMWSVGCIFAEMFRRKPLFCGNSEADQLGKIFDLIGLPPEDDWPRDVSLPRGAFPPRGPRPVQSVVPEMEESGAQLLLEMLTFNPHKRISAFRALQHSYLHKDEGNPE

[2] = target: T2, CDK6 (Homo sapiens, UniProt Q00534); assay: palbociclib-based degrader
Target sequence in this assay (P40337 whole entry): as the sequence (P40337 whole entry) above
Target sequence in this assay (Q00534 whole entry): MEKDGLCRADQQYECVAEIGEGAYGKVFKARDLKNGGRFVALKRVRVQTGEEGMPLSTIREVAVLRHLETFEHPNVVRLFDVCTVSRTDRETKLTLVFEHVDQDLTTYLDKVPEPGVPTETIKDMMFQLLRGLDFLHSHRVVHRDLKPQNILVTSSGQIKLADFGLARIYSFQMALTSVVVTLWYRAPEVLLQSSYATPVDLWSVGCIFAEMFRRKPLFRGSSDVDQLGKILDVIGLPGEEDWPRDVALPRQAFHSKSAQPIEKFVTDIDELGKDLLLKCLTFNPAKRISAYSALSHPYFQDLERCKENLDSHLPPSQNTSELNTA

[3] = target: T1, CDK4; assay: palbociclib-based degrader; remark: listed apart in the source
Target sequence in this assay (P11802 2-303): as the sequence (P11802 2-303) above

[4] = target: T2, CDK6; assay: palbociclib-based degrader; remark: listed apart in the source
Target sequence in this assay (Q00534 whole entry): as the sequence (Q00534 whole entry) above

[5] = target: T1, CDK4; assay: IP-kinase assay
Target sequence in this assay (P11802 2-303): as the sequence (P11802 2-303) above

- palbociclib-based degrader; CDK4 degradation in MCF7 cells (immunoblot) [1]: ~ 10 nmol/L
- palbociclib-based degrader; CDK6 degradation in MCF7 cells (immunoblot) [2]: ~ 10 nmol/L
SMILES: CC(=O)c1c(C)c2cnc(Nc3ccc(N4CCN(CCCCC(=O)N[C@H](C(=O)N5C[C@H](O)C[C@H]5C(=O)N[C@@H](C)c5ccc(-c6scnc6C)cc5)C(C)(C)C)CC4)cn3)nc2n(C2CCCC2)c1=O [BSJ-05-017]

- palbociclib-based degrader; CDK4 degradation in MCF7 cells (immunoblot) [3]: ~ 10 nmol/L
- palbociclib-based degrader; CDK6 degradation in MCF7 cells (immunoblot) [4]: ~ 10 nmol/L
SMILES: CC(=O)c1c(C)c2cnc(Nc3ccc(N4CCN(CC5CCN(c6ccc7c(c6)C(=O)N(C6CCC(=O)NC6=O)C7=O)CC5)CC4)cn3)nc2n(C2CCCC2)c1=O (centres unmarked) [BSJ-03-096]

- % reduced [5]: 84 % reduced
SMILES: CCN1CCN(Cc2ccc(Nc3ncc(F)c(-c4cc(F)c5nc(C)n(C(C)C)c5c4)n3)nc2)CC1 [abemaciclib]

Source: article PMC8831444 (Cancer Discovery, 2021)
